{"source": "patent US5242826A", "about": "“Polypeptides for adhering cells to a substrate” (Regents of the University of Minnesota, priority 1991, dated 1993)", "assay": "3H-heparin binding to type IV collagen and to NCl domain", "procedure": "It was then established that ^3 H-heparin binds both to intact, native type IV collagen and to the isolated NCl domain. FIGS. 10 and 11 show the binding of a constant amount of ^3 H-heparin (85,000 dpm) to increasing concentrations of type IV collagen and the NCl domain, respectively. […] Type IV collagen binds 5-6 times more ^3 H-heparin than does the NCl domain.\nNext, the binding of increasing concentrations of ^3 H-heparin to a constant amount of type IV collagen (3 μg) and an equimolar amount of the NCl domain (1 μg) was tested. […] In this type of experiment, approximately 4 times more ^3 H-heparin bound to type IV collagen than to the NCl domain.", "data": [{"substance": "type IV collagen: basement membrane glycoprotein, MW about 500,000, two α1 chains and one α2 chain", "values": [{"measurement": "binding of a constant amount of 3H-heparin to increasing concentrations of protein", "setting": "3H-heparin 85,000 dpm, FIG. 10-11", "result": "saturable binding"}, {"measurement": "3H-heparin bound by type IV collagen relative to NCl domain", "setting": "constant 3H-heparin (85,000 dpm), increasing protein", "result": "5-6 times"}, {"measurement": "3H-heparin bound to type IV collagen relative to NCl domain", "setting": "increasing 3H-heparin, constant protein (3 μg vs 1 μg)", "result": "approximately 4 times"}, {"measurement": "binding of increasing concentrations of 3H-heparin to a constant amount of protein", "setting": "type IV collagen 3 μg, NCl domain 1 μg (equimolar), FIG. 12-13", "result": "saturable binding"}]}]}
